The text below walks through data of ChEMBL document CHEMBL5058644, “Data for DCP probe JNJ-39758979” (2022).

As usually defined, the Ki is the dissociation constant of the complex between target and ligand, obtained from inhibition or displacement. A high value points to a looser hold on the target.

Experiment [1] has as its target T1, Histamine H4 receptor (Homo sapiens, UniProt Q9H3N8). Kind of experiment: Binding assay.
In experiment [2] the target is T1, Histamine H4 receptor. Nature of the experiment: Cell based cAMP Assays (pA2). Conditions: read-out: pA2 (converted); call rule not given here.

T1 sequence (Q9H3N8 whole entry): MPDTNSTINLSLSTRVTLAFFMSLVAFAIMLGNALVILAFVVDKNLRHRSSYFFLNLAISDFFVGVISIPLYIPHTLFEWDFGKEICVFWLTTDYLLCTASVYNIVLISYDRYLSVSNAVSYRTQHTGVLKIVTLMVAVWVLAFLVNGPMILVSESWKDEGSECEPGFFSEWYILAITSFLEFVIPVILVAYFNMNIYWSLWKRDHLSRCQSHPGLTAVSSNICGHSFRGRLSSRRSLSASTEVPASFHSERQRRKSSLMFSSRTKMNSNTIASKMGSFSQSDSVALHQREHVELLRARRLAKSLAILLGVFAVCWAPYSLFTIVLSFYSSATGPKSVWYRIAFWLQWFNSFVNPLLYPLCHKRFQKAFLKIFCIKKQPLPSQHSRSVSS

On to `CN[C@@H]1CCN(c2cc(C(F)(F)F)nc(N)n2)C1`, for which, at Histamine H4 receptor [1], the Ki is recorded as > 10 µM (not active). In addition, the Kb at Histamine H4 receptor [2] is listed as > 100 µM (not active).
